The source of these data is US6727232B2, “Nucleoside peptide antibiotics of AA-896” (Wyeth Holdings Corporation, priority 2001, dated 2004).

Converted amounts (≈) assume the structure as drawn. Like-named read-outs stand apart in the source and are kept apart here.

Test in all cases: Broth dilution MIC
Format in all cases: cell-based
For orientation: Dilution methods test growth across graded concentrations, often in twofold steps.

One assay has as its system CNS GC 4537. The following applies: read-out: Antimicrobial Activity (MIC). How it is done: (§1) The in vitro antibacterial activity of Example 1 through Example 20 is determined against a spectrum of Gram-positive and Gram-negative bacteria by a standard broth dilution method. Serial dilution of the compounds are made in Mueller-Hinton broth and inoculated with a bacterial suspension. The lowest concentration of compound that inhibited the growth of a bacterial strain after 18 hours of incubation at 35° C. is reported as the minimal inhibitory concentration (MIC) for that strain.

In a further assay the test system is CNS GC 4538. The following applies: read-out: Antimicrobial Activity (MIC). How it is done: as §1
For the next assay, the system named is CNS GC 4547. The settings on record: read-out: Antimicrobial Activity (MIC). How it is done: as §1
Another assay has as its system E. cloacae GC 3783. The following applies: Enterobacter cloacae, read-out: Antimicrobial Activity (MIC). As for the experimental part: as §1
The subject of another assay is E. coli GC 2203. The settings on record: Escherichia coli, read-out: Antimicrobial Activity (MIC). As for the experimental part: as §1
The next assay deals with E. coli GC 3226. The following applies: Escherichia coli, read-out: Antimicrobial Activity (MIC). As for the experimental part:
as §1

For the next assay, the system named is E. coli GC 4559. The settings on record: Escherichia coli, read-out: Antimicrobial Activity (MIC). As for the experimental part: as §1
The next assay relates to E. coli GC 4560. The following applies: Escherichia coli, GC4560, 18 h, read-out: Antimicrobial Activity (MIC). How it is done:
as §1

Another assay has as its system E. faecalis GC 2242. The settings on record: Enterococcus faecalis, read-out: Antimicrobial Activity (MIC). How it is done: as §1
Another assay concerns E. faecalis GC 4555. The following applies: Enterococcus faecalis, read-out: Antimicrobial Activity (MIC). How it is done: as §1
Another assay concerns E. faecalis GC 842. The settings on record: Enterococcus faecalis, read-out: Antimicrobial Activity (MIC). As for the experimental part: as §1
The next assay deals with K. pneumoniae GC 4534. The following applies: Klebsiella pneumoniae, read-out: Antimicrobial Activity (MIC). As for the experimental part:
as §1

Another assay concerns M. morganii GC 4531. The settings on record: Morganella morganii, read-out: Antimicrobial Activity (MIC). As for the experimental part:
as §1

The test system of another assay is P. aeruginosa GC 2214. The settings on record: Pseudomonas aeruginosa, read-out: Antimicrobial Activity (MIC). How it is done: as §1
A further assay relates to P. aeruginosa GC 4532. The settings on record: Pseudomonas aeruginosa, read-out: Antimicrobial Activity (MIC). As for the experimental part:
as §1

For another assay, the system named is P. rettgeri GC 4530. The following applies: Providencia rettgeri, read-out: Antimicrobial Activity (MIC). How it is done:
as §1

The subject of a further assay is S. aureus GC 1131. The settings on record: Staphylococcus aureus, read-out: Antimicrobial Activity (MIC). As for the experimental part: as §1
For another assay, the system named is S. aureus GC 2216. The following applies: Staphylococcus aureus, read-out: Antimicrobial Activity (MIC). As for the experimental part: as §1
The next assay deals with S. aureus GC 4536. The settings on record: Staphylococcus aureus, read-out: Antimicrobial Activity (MIC). How it is done:
as §1

In the next assay the test system is S. marcescens GC 4077. The following applies: Serratia marcescens, read-out: Antimicrobial Activity (MIC). How it is done:
as §1

[1] abbreviates: CNS GC 4537, Mueller-Hinton broth, 18 hours at 35° C.
The mark [2] stands for this setting: CNS GC 4538, Mueller-Hinton broth, 18 hours at 35° C.
Setting [3] is: CNS GC 4547, Mueller-Hinton broth, 18 hours at 35° C.
The mark [4] stands for this setting: GC3783, E. cloacae GC 3783, Mueller-Hinton broth, 18 hours at 35° C.
[5] abbreviates: GC2203, E. coli GC 2203, Mueller-Hinton broth, 18 hours at 35° C.
[6] abbreviates: GC3226, E. coli GC 3226, Mueller-Hinton broth, 18 hours at 35° C.
Where [7] appears, read: GC4559, E. coli GC 4559, Mueller-Hinton broth, 18 hours at 35° C.
The mark [8] stands for this setting: GC2242, E. faecalis GC 2242, Mueller-Hinton broth, 18 hours at 35° C.
Setting [9] is: GC4555, E. faecalis GC 4555, Mueller-Hinton broth, 18 hours at 35° C.
Setting [10] is: GC842, E. faecalis GC 842, Mueller-Hinton broth, 18 hours at 35° C.
The mark [11] stands for this setting: GC4534, K. pneumoniae GC 4534, Mueller-Hinton broth, 18 hours at 35° C.
Setting [12] is: GC4531, M. morganii GC 4531, Mueller-Hinton broth, 18 hours at 35° C.
The mark [13] stands for this setting: GC2214, P. aeruginosa GC 2214, Mueller-Hinton broth, 18 hours at 35° C.
The mark [14] stands for this setting: GC4532, P. aeruginosa GC 4532, Mueller-Hinton broth, 18 hours at 35° C.
Where [15] appears, read: GC4530, P. rettgeri GC 4530, Mueller-Hinton broth, 18 hours at 35° C.
The mark [16] stands for this setting: GC1131, S. aureus GC 1131, Mueller-Hinton broth, 18 hours at 35° C.
Setting [17] is: GC2216, S. aureus GC 2216, Mueller-Hinton broth, 18 hours at 35° C.
The mark [18] stands for this setting: GC4536, S. aureus GC 4536, Mueller-Hinton broth, 18 hours at 35° C.
Where [19] appears, read: GC4077, S. marcescens GC 4077, Mueller-Hinton broth, 18 hours at 35° C.

For `CO[C@H]1C(O[C@H](C(C(=O)O)N(CCCNC(=O)C(NC(=O)C(NC(=O)NC(C(=O)O)C(C)C)C2CCNC(=N)N2)C(O)C(C)C)Cc2ccccc2)[C@H]2O[C@@H](n3ccc(=O)[nH]c3=O)[C@H](O)[C@@H]2O)O[C@H](CN)[C@@H]1O` (stereo partly drawn) [Example 6, 16-((R)-{[(3R,4S,5R)-5-(Aminomethyl)-4-hydroxy-3-methoxytetrahydro-2-furanyl]oxy}{(2S,3S,4R,5R)-5-[2,4-dioxo-3,4-dihydro-1 (2H)-pyrimidinyl]-3,4-dihydroxytetrahydro-2-furanyl}methyl)-15-benzyl-9-(1-hydroxy-2-methylpropyl)-6-(2-iminohexahydro-4-pyrimidinyl)-2-isopropyl-4,7,10-trioxo-3,5,8,11,15-pentaazaheptadecane-1,17-dioic Acid], the MIC with CNS GC 4537 (setting [1]), in the assay on CNS GC 4538 (setting [2]), with CNS GC 4547 (setting [3]), with E. cloacae GC 3783 (setting [4]), in the assay on E. coli GC 2203 (setting [5]) and in the assay on E. coli GC 3226 (setting [6]) was greater than 32 µg/mL each time. The MIC (commonly the smallest concentration in the dilution series that meets the test's criterion for growth inhibition) in the assay on E. coli GC 4559 (setting [7]) was greater than 32 µg/mL; with E. coli GC 4560, 2 µg/mL (≈ 1.93 µM); in the assay on E. faecalis GC 2242 (setting [8]), greater than 32 µg/mL; with E. faecalis GC 4555 (setting [9]), greater than 32 µg/mL; in the assay with E. faecalis GC 842 (setting [10]), greater than 32 µg/mL; in the assay with K. pneumoniae GC 4534 (setting [11]), greater than 32 µg/mL. Further, the MIC in the assay on M. morganii GC 4531 (setting [12]), with P. aeruginosa GC 2214 (setting [13]), in the assay on P. aeruginosa GC 4532 (setting [14]), in the assay on P. rettgeri GC 4530 (setting [15]), in the assay on S. aureus GC 1131 (setting [16]) and in the assay on S. aureus GC 2216 (setting [17]) was greater than 32 µg/mL throughout. Besides, the MIC in the assay with S. aureus GC 4536 (setting [18]) and in the assay on S. marcescens GC 4077 (setting [19]) was greater than 32 µg/mL each time.
In the case of `CCCCCCCCCCCCN(CCCNC(=O)C(NC(=O)C(NC(=O)NC(C(=O)O)C(C)C)C1CCNC(=N)N1)C(O)C(C)C)C(C(=O)O)[C@@H](OC1O[C@H](CN)[C@H](O)[C@H]1OC)[C@H]1O[C@@H](n2ccc(=O)[nH]c2=O)[C@H](O)[C@@H]1O` (stereo partly drawn) [Example 7, 16-((R)-{[(3R,4S,5R)-5-(Aminomethyl)-4-hydroxy-3-methoxytetrahydro-2-furanyl]oxy}{(2S,3S,4R,5R)-5-[2,4-dioxo-3,4-dihydro-1 (2H)-pyrimidinyl]-3,4-dihydroxytetrahydro-2-furanyl}methyl)-15-dodecyl-9-(1-hydroxy-2-methylpropyl)-6-(2-iminohexahydro-4-pyrimidinyl)-2-isopropyl-4,7,10-trioxo-3,5,8,11,15-pentaazaheptadecane-1,17-dioic Acid], the MIC in the assay on CNS GC 4537 (setting [1]), in the assay on CNS GC 4538 (setting [2]), with CNS GC 4547 (setting [3]), with E. cloacae GC 3783 (setting [4]), with E. coli GC 2203 (setting [5]) and with E. coli GC 3226 (setting [6]) was greater than 32 µg/mL throughout. Further, the MIC in the assay on E. coli GC 4559 (setting [7]) was greater than 32 µg/mL; with E. coli GC 4560, 16 µg/mL (≈ 14.4 µM); in the assay on E. faecalis GC 2242 (setting [8]), greater than 32 µg/mL; with E. faecalis GC 4555 (setting [9]), greater than 32 µg/mL; in the assay with E. faecalis GC 842 (setting [10]), greater than 32 µg/mL; with K. pneumoniae GC 4534 (setting [11]) it was greater than 32 µg/mL. Besides, the MIC in the assay with M. morganii GC 4531 (setting [12]), in the assay on P. aeruginosa GC 2214 (setting [13]), in the assay with P. aeruginosa GC 4532 (setting [14]), in the assay on P. rettgeri GC 4530 (setting [15]), with S. aureus GC 1131 (setting [16]) and in the assay with S. aureus GC 2216 (setting [17]) was greater than 32 µg/mL each time. For the same molecule, the MIC in the assay on S. aureus GC 4536 (setting [18]) and with S. marcescens GC 4077 (setting [19]) was greater than 32 µg/mL throughout.
In the case of `CO[C@H]1C(O[C@H](C(C(=O)O)N(CCCCCCCCCCCCN2CCOCC2)CCCNC(=O)C(NC(=O)C(NC(=O)NC(C(=O)O)C(C)C)C2CCNC(=N)N2)C(O)C(C)C)[C@H]2O[C@@H](n3ccc(=O)[nH]c3=O)[C@H](O)[C@@H]2O)O[C@H](CN)[C@@H]1O` (stereo partly drawn) [Example 8, 16-((R)-{[(3R,4S,5R)-5-(Aminomethyl)-4-hydroxy-3-methoxytetrahydro-2-furanyl]oxy}{(2S,3S,4R,5R)-5-[2,4-dioxo-3,4-dihydro-1 (2H)-pyrimidinyl]-3,4-dihydroxytetrahydro-2-furanyl}methyl)-9-(1-hydroxy-2-methylpropyl)-6-(2-iminohexahydro-4-pyrimidinyl)-2-isopropyl-15-[12-(4-morpholinyl)dodecyl]-4,7,10-trioxo-3,5,8,11,15-pentaazaheptadecane-1,17-dioic Acid], the MIC is greater than 32 µg/mL in the assay on CNS GC 4537 (18 h); greater than 32 µg/mL with CNS GC 4538 (18 h); greater than 32 µg/mL with CNS GC 4547 (18 h); greater than 32 µg/mL with E. cloacae GC 3783 (GC3783, 18 h); greater than 32 µg/mL in the assay with E. coli GC 2203 (GC2203, 18 h); greater than 32 µg/mL with E. coli GC 3226 (GC3226, 18 h). For the same molecule, the MIC in the assay with E. coli GC 4559 (GC4559, 18 h) is greater than 32 µg/mL; with E. coli GC 4560, greater than 32 µg/mL; in the assay on E. faecalis GC 2242 (GC2242, 18 h), greater than 32 µg/mL; with E. faecalis GC 4555 (GC4555, 18 h) it was greater than 32 µg/mL; in the assay with E. faecalis GC 842 (GC842, 18 h), greater than 32 µg/mL; in the assay on K. pneumoniae GC 4534 (GC4534, 18 h), greater than 32 µg/mL. The MIC in the assay on M. morganii GC 4531 (GC4531, 18 h) was greater than 32 µg/mL; in the assay on P. aeruginosa GC 2214 (GC2214, 18 h) it was greater than 32 µg/mL; with P. aeruginosa GC 4532 (GC4532, 18 h), greater than 32 µg/mL; in the assay on P. rettgeri GC 4530 (GC4530, 18 h), greater than 32 µg/mL; with S. aureus GC 1131 (GC1131, 18 h), greater than 32 µg/mL; with S. aureus GC 2216 (GC2216, 18 h), greater than 32 µg/mL. In addition, the MIC in the assay with S. aureus GC 4536 (GC4536, 18 h) was greater than 32 µg/mL; with S. marcescens GC 4077 (GC4077, 18 h), greater than 32 µg/mL.
